The values below come from patent US20250313563A1, “GLYCOGEN SYNTHASE KINASE 3 INHIBITORS AND USES THEREOF” (The Broad Institute, Inc., priority 2022, published 2025).

Read-outs that look alike come from different tables or passages of the source. A value given as a limit tells only on which side of the number the result lay.

In test [1] the target is GSK3α (GST-full length GSK3α) (Homo sapiens (Human), UniProt P49840). The experiment in a line: GSK3α TR-FRET kinase assay. It is filed as biochemical. The method, boiled down: (§1)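 Full-length GST-tagged human enzyme (1 nM) is exposed to test compound for 30 min before substrates are added. Phosphorylation of a primed biotinylated glycogen synthase peptide proceeds 100 min at room temperature at low ATP (4 μM α; 2 μM β) or high ATP (1 mM). Product is quantified by TR-FRET.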
GSK3α (GST-full length GSK3α), sequence (P49840 whole entry): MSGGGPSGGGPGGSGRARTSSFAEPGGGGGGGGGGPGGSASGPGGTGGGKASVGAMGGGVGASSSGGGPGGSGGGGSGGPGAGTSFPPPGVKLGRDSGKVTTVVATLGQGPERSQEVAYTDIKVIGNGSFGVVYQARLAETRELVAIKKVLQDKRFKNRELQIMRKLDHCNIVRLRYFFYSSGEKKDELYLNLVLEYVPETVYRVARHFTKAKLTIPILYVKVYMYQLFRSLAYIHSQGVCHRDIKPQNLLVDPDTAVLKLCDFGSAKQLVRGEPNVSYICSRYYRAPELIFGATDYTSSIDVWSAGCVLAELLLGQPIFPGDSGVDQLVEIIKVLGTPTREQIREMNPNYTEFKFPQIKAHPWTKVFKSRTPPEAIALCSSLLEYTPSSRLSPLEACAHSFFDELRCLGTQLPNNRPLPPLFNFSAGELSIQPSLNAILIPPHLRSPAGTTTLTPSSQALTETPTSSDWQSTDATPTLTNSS
Background: TR-FRET usually uses a lanthanide donor and a delayed reading to cut background.

Test [2] concerns the target GSK3b (GST-full length GSK3b) (Homo sapiens (Human), UniProt P49841). Kind of test: GSK3b TR-FRET kinase assay. The class given is biochemical. The method, boiled down:
as §1

Where [3] appears, read: 1 nM GSK3α, 4 μM ATP, 30 minute preincubation, Table 16, read-out: GSK3-A TR-FRET BIOCHEMICAL (TR-FRET).
Setting [4] is: 1 nM GSK3b, 2 μM ATP, 30 minute preincubation, Table 16, read-out: GSK3-B TR-FRET BIOCHEMICAL (TR-FRET).
The mark [5] stands for this setting: 1 nM GSK3α, 4 μM ATP, 30 minute preincubation, geometric mean, read-out: GSK3-A TR-FRET BIOCHEMICAL (TR-FRET), GMean, IC50.
[6] abbreviates: 1 nM GSK3b, 2 μM ATP, 30 minute preincubation, geometric mean, read-out: GSK3-B TR-FRET BIOCHEMICAL (TR-FRET), GMean, IC50.
[7] abbreviates: read-out: GSK3-A (TR-FRET 1 mM ATP), GMean, IC50, 1 mM ATP, geometric mean.
Where [8] appears, read: read-out: GSK3-B (TR-FRET 1 mM ATP), GMean, IC50, 1 mM ATP, geometric mean.
The mark [9] stands for this setting: 1 nM GSK3α, 4 μM ATP, 30 minute preincubation, Table 16, read-out: GSK3-A TR-FRET BIOCHEMICAL (TR-FRET), IC50.
The mark [10] stands for this setting: 1 nM GSK3b, 2 μM ATP, 30 minute preincubation, Table 16, read-out: GSK3-B TR-FRET BIOCHEMICAL (TR-FRET), IC50.
[11] abbreviates: GSK3-A (TR-FRET 1 mM ATP), GMean, IC50, 1 mM ATP, geometric mean.

GSK3b (GST-full length GSK3b), sequence (P49841 whole entry): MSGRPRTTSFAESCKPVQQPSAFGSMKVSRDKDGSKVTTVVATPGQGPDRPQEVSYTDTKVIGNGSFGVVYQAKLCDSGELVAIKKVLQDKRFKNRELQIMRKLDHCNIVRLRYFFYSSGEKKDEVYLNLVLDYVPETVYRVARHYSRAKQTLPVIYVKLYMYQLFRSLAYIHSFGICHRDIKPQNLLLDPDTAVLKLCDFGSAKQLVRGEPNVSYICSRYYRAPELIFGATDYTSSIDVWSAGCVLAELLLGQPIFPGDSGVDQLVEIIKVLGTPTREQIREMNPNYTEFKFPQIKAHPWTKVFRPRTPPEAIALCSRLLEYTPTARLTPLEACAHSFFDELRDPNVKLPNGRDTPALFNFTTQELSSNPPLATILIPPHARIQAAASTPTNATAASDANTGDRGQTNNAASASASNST

Take `CC1(C)CC(=O)C2=C(C1)Nc1n[nH]cc1C21CCC(C(=O)N2CCCC2)CC1` (centres unmarked) [Compound 945394]: the IC50 in test [1] (setting [3]) was in the range of 100 to 1000 nM; in test [2] (setting [4]) it was 1000 to 5000 nM.
The matching figures for `CC1(C)CC(=O)C2=C(C1)Nc1n[nH]cc1C21CCCN(S(=O)(=O)Cc2ccccc2)CC1` (centres unmarked) [Compound 932632]: not above 100 nM and 100 to 1000 nM.
For the compound `CCC1(c2cccc(SC)c2)C2=C(CC(C)(C)CC2=O)Nc2n[nH]cc21` (centres unmarked) [Compound 810508], the IC50 in test [1] (setting [5]) is not above 100 nM; in test [2] (setting [6]), 100 to 1000 nM.
With `CC[C@@]1(c2ccccc2)C2=C(Nc3n[nH]cc31)[C@@H](F)C(C)(C)CC2=O` [Compound 957196], the IC50 in test [1] (setting [3]) and in test [2] (setting [4]) was more than 5000 nM each time.
As to `CCC1(c2cccc(-c3ccnc(C)c3)c2)C2=C(Nc3n[nH]cc31)C(F)C(C)(C)CC2=O` (centres unmarked) [Compound 946103], the IC50 in test [1] (setting [3]) is 100 to 1000 nM; in test [1] (setting [7]), more than 5000 nM; in test [2] (setting [4]), 1000 to 5000 nM; in test [2] (setting [8]) it was more than 5000 nM.
As to `Cc1nccc([C@H]2CC[C@]3(CC2)C2=C(CC(C)(C)CC2=O)Nc2n[nH]cc23)c1C` [Compound 950477], the IC50 in test [1] (setting [3]) and in test [2] (setting [4]) was 100 to 1000 nM each time.
For `CCC1(c2cccc(-c3cn(C)nc3C)c2)C2=C(CC3(CCS(=O)(=O)CC3)NC2=O)Nc2n[nH]cc21` (centres unmarked) [Compound 950813], the results for the IC50 in test [1] (setting [9]) and in test [2] (setting [10]) were not above 100 nM and 100 to 1000 nM, respectively.
Consider `CCC1(c2cccc(N3CCOCC3)c2)C2=C(CC(C)(C)CC2=O)Nc2n[nH]cc21` (centres unmarked) [Compound 810363], for which the IC50 in test [1] (setting [5]) and in test [2] (setting [6]) was 100 to 1000 nM each time.
For the compound `CCC1(c2cccc(N3CCCCC3)c2)C2=C(CC(C)(C)CC2=O)Nc2n[nH]c(C)c21` (centres unmarked) [Compound 884115], the IC50 in test [1] (setting [9]) and in test [2] (setting [10]) was 100 to 1000 nM throughout.
As to `CCC1(c2cccc(-c3ccnc(C)c3)c2)C2=C(Nc3n[nH]cc31)C(F)C(C)(C)CC2=O` (centres unmarked) [Compound 946101], the IC50 in test [1] (setting [3]) is 1000 to 5000 nM; in test [2] (setting [4]), more than 5000 nM.
Take `CCC1(c2cccc(-c3ccnc(C)c3F)c2)C2=C(CC(C)(C)CC2=O)Nc2n[nH]cc21` (centres unmarked) [Compound 918281]: the IC50 was not above 100 nM in test [1] (setting [9]) and 100 to 1000 nM in test [2] (setting [10]).
Take `CCC1(c2cccc(-c3cnnc(C)c3)c2)C2=C(CC(C)(C)CC2=O)Nc2n[nH]cc21` (centres unmarked) [Compound 943994]: the IC50 was not above 100 nM in test [1] (setting [3]), 100 to 1000 nM in test [1] (setting [7]), not above 100 nM in test [2] (setting [4]) and 1000 to 5000 nM in test [2] (setting [8]).
Take `COc1ccc(S(=O)(=O)N2CCC3(CC2)C2=C(CC(C)(C)CC2=O)Nc2n[nH]cc23)cc1` [Compound 917143]: the IC50 in test [1] (setting [3]) and in test [2] (setting [4]) was not above 100 nM throughout.
Take `CCC1(c2cccc(C(C)C)c2)C2=C(CC(C)(C)NC2=O)Nc2n[nH]c(C(F)(F)F)c21` (centres unmarked) [Compound 949747]: the IC50 in test [1] (setting [9]) and in test [2] (setting [10]) was not above 100 nM each time.
As for `CCC1(c2cccc(-c3ccncc3OC)c2)C2=C(CC(C)(C)CC2=O)Nc2n[nH]cc21` (centres unmarked) [Compound 945481], the IC50 in test [1] (setting [3]) was not above 100 nM; in test [1] (setting [7]), not above 100 nM; in test [2] (setting [4]), not above 100 nM; in test [2] (setting [8]) it was 100 to 1000 nM.
Consider `CC1(C)CC(=O)C2=C(C1)Nc1n[nH]cc1C21CCN(S(=O)(=O)c2ccc(Cl)cc2)CC1` [Compound 945661], for which the IC50 in test [1] (setting [3]) and in test [2] (setting [4]) was not above 100 nM throughout.
For the compound `CCc1cc(-c2cccc([C@@]3(CC)C4=C(CC(C)(C)NC4=O)Nc4n[nH]cc43)c2)n(C)n1` [Compound 952561], the IC50 in test [1] (setting [9]) and in test [2] (setting [10]) was 100 to 1000 nM in each case.
Turning to `COC(=O)C1(c2ccccc2)CC2(C1)C1=C(CC(C)(C)CC1=O)Nc1n[nH]cc12` (centres unmarked) [Compound 942366], the IC50 in test [1] (setting [3]) and in test [2] (setting [4]) was not above 100 nM each time.
As to `CCC1(c2cccc(N(C)c3nccc(C)n3)c2)C2=C(CC(C)(C)CC2=O)Nc2n[nH]cc21` (centres unmarked) [Compound 945328], the IC50 in test [1] (setting [3]) is not above 100 nM; in test [1] (setting [7]), not above 100 nM; in test [2] (setting [4]) it was not above 100 nM; in test [2] (setting [8]), 100 to 1000 nM.
Consider `CC1(C)CC(=O)C2=C(C1)Nc1n[nH]c(C3(C(F)(F)F)CC3)c1C21CCc2c(F)cccc21` (centres unmarked) [Compound 816839], for which the IC50 in test [1] (setting [5]) was more than 5000 nM; in test [2] (setting [6]), 1000 to 5000 nM.
The matching figures for `CC[C@@]1(c2cccc(-c3ccnc4ccc(OC)cc34)c2)C2=C(CC(C)(C)NC2=O)Nc2n[nH]cc21` [Compound 948518]: more than 5000 nM and more than 5000 nM.
Turning to `CC1OCCC12C1=C(CC(C)(C)CC1=O)Nc1n[nH]cc12` (centres unmarked) [Compound 911958], the IC50 in test [1] (setting [9]) and in test [2] (setting [10]) was more than 5000 nM each time.
`CC(C)(C)Cc1[nH]nc2c1[C@@](C)(c1cccc(S(=O)(=O)CC3CC3)c1)C1=C(CC(C)(C)NC1=O)N2` [Compound 108006]: the IC50 in test [1] (setting [7]) and in test [2] (setting [8]) was more than 5000 nM throughout.
As for `Cc1cc([C@H]2CC[C@]3(CC2)C2=C(CC(C)(C)CC2=O)Nc2n[nH]cc23)ccn1` [Compound 948416], the IC50 in test [1] (setting [3]) is not above 100 nM; in test [2] (setting [4]) it was 100 to 1000 nM.
`CC1(C)CC(=O)C2=C(C1)Nc1n[nH]cc1[C@]21CCN(S(=O)(=O)CC2CC2)C1` [Compound 943481]: the IC50 in test [1] (setting [3]) is not above 100 nM; in test [1] (setting [11]) it was 100 to 1000 nM; in test [2] (setting [4]), not above 100 nM; in test [2] (setting [8]) it was 100 to 1000 nM.
For the compound `CCC1(c2cccc(-c3c(F)cncc3OC)c2)C2=C(Nc3n[nH]cc31)C(F)C(C)(C)CC2=O` (centres unmarked) [Compound 948547, 4-ethyl-8-fluoro-4-(3-(3-fluoro-5-methoxypyridin-4-yl)phenyl)-7,7-dimethyl-2,4,6,7,8,9-hexahydro-SH-pyrazolo[3,4-b]quinolin-5-one], the IC50 in test [1] (setting [3]) is not above 100 nM; in test [1] (setting [7]) it was 100 to 1000 nM; in test [2] (setting [4]) it was not above 100 nM; in test [2] (setting [8]), 1000 to 5000 nM.
With `CC1(C)CC(=O)C2=C(Nc3n[nH]cc3[C@]23CC[C@H](C(F)(F)F)CC3)C1F` (some centres unmarked) [Compound 917136], the IC50 in test [1] (setting [3]) was not above 100 nM; in test [2] (setting [4]) it was 100 to 1000 nM.
`CCC1(c2cccc(-c3cn(C)nc3C)c2)C2=C(Nc3n[nH]cc31)C(F)C(C)(C)CC2=O` (single isomer, unassigned) [Compound 947650, 4-(3-(1,3-dimethyl-1H-pyrazol-4-yl)phenyl)-4-ethyl-8-fluoro-7,7-dimethyl-2,4,6,7,8,9-hexahydro-5H-pyrazolo[3,4-b]quinolin-5-one]: the IC50 is not above 100 nM in test [1] (setting [3]); 100 to 1000 nM in test [1] (setting [11]); not above 100 nM in test [2] (setting [4]); more than 5000 nM in test [2] (GSK3-B (TR-FRET 1 mM ATP), GMean, IC50, 1 mM ATP, geometric mean).
With `CC[C@@]1(c2cccc(-c3ccnc(C)c3)c2)C2=C(CC(C)(C)NC2=O)Nc2n[nH]c(C(F)(F)F)c21` [Compound 948774], the IC50 in test [1] (setting [5]) and in test [2] (setting [6]) was not above 100 nM each time.
Regarding `CCC1(c2cccc(-c3cn(C)nc3C)c2)C2=C(CC(C)(C)NC2=O)Nc2n[nH]c(C(F)(F)F)c21` (centres unmarked) [Compound 948314], the IC50 in test [1] (setting [5]), in test [1] (setting [7]), in test [2] (setting [6]) and in test [2] (setting [8]) was not above 100 nM in each case.
In the case of `CCC1(c2cccc(C(F)(F)F)c2)C2=C(CCN(c3ncn(C)c3C)C2=O)Nc2n[nH]cc21` (centres unmarked) [Compound 951598], the IC50 was 100 to 1000 nM in test [1] (setting [9]) and more than 5000 nM in test [2] (setting [10]).
Take `Cc1noc(C2CCC3(CC2)C2=C(CC(C)(C)CC2=O)Nc2n[nH]cc23)n1` (centres unmarked) [Compound 943895]: the IC50 in test [1] (setting [3]) and in test [2] (setting [4]) was 100 to 1000 nM throughout.
